Like-named read-outs stand apart in the source and are kept apart here.
Tests used:
[1] = test system: second independent PKD1 KO clone (#2); assay: Luminescence-based ATP-dependent cell viability assay (CellTiter-Glo 2.0), dose-response, PKD1 knockout clone #2; conditions: Mus musculus
Protocol: (§1) Subculturing of cells was performed twice a week in a 1:10 ratio. Cells were maintained in a humidified incubator at 37°C and 5% CO2. […] The term "wild-type" is used for mIMCD-3 cells that were not edited by CRISPR-Cas9. The original cell line obtained from ATCC was generated from inner medullary collecting ducts of a SV-40 transgenic mouse.^13
(§2) Prior to genome editing, a monoclonal starting cell line was generated by a single cell sorting step.
(§3) After 72 hours cell density was checked with an inverted microscope (Zeiss Axiovert 40CFL). Cells were washed with 10 ml phosphate buffered saline (PBS). […] 10 ml DMEM:F12 with 10% FBS and 1% penicillin/streptomycin were added, cell detachment was facilitated by pipetting up and down multiple times. […] Cell density was diluted to 400,000 cells/ml for each genotype. […] Basins of 1536 well plates were filled with 25 µl (vertical basins) or 40 µl (horizontal basins) H2O in order to prevent evaporation induced edge effects. Confluency was checked after 24 hours with an Evos M5000 imaging system (Invitrogen).
(§4) For the secondary screen and validation experiments, source plates were generated with compounds in 1:2 dilutions allowing for the generation of dose-response-curves. 30 nl of compounds per well were transferred in secondary screen and validation experiments. […] The volume of transferred DMSO was adjusted according to the transferred compound volume. […] After compound transfer, plates were centrifuged (Multifuge 3 s-r, Heraeus) for 10 seconds (1,000 rpm). […] Plates were stored in incubators at 37°C and 5% CO2 for 72 hours. A maximum of two plates was stacked in the incubator. Source plates were sealed with an Agilent Technologies Plateloc heat sealer. Prior to compound transfer source plates were centrifuged (4,200 rpm, 1 min). Sealing was removed with a Brooks XPeel device.
(§5) After 72 hours of compound incubation, plates were allowed to adapt to room temperature for 20 minutes. […] The luminescence signal was allowed to stabilize for 20 min. Luminescence was scanned with a BMG Labtech Pherastar FSX luminescence reader with a measurement interval time of 0.16 s per well. A 1536-well plate adapted aperture was used to minimize cross-talk. Data analysis was performed with GraphPad Prism (version 9). Dose- and genotype-dependent differences in viability were checked for statistical significance by performing a two-way ANOVA (α = 0.05). Difference in protein abundance analyzed by western blot were checked for statistical significance by performing a student's t-test (α = 0.05).

[2] = test system: monoclonal PKD1 KO mIMCD-3 cell line (clone #1); assay: Luminescence-based ATP-dependent cell viability assay (CellTiter-Glo 2.0), dose-response, PKD1 knockout clone #1; set-up: species or system mouse; conditions: for IC50: Mus musculus; for effect sizes: further MEK-inhibitors tested, PKD1-deficient cells compared to wildtype cells
Protocol: as §1, §2, §3, §4, §5

[3] = test system: isogenic wildtype mIMCD-3 cells; assay: Luminescence-based ATP-dependent cell viability assay (CellTiter-Glo 2.0), dose-response, isogenic wildtype counter screen; conditions: Mus musculus
Protocol: as §1, §2, §3, §4, §5

[4] = mIMCD3, mIMCD-3 PKD1 knockout clone 2, 72 hours compound incubation, IC50 = concentration that kills 50% of the cells, read-out: IC50 PKD1-/- (clone 2)
[5] = mIMCD3, mIMCD-3 PKD1 knockout clone 1, 72 hours compound incubation, IC50 = concentration that kills 50% of the cells, read-out: IC50 PKD1-/- (clone 1)
[6] = mIMCD3, isogenic wildtype mIMCD-3 control cells, 72 hours compound incubation, read-out: IC50 wildtype
[7] = mIMCD3, 72 h, read-out: IC50 wildtype (µM)
[8] = mIMCD3, 72 h, read-out: IC50 PKD1-/- (clone 2) (µM)
[9] = mIMCD3, 72 h, read-out: IC50 PKD1-/- (clone 1) (µM)

SMILES | IC50 [1, 4] [µM] | IC50 [2, 5] [µM] | IC50 [3, 6] [µM] | IC50 [3, 7] [µM] | effect sizes [2] | IC50 [1, 8] [µM] | IC50 [2, 9] [µM]
S=C(SSC(=S)N1CCOCC1)N1CCOCC1 [Number 21, Dimorpholinethiuram disulfide] | 3.94 | 5.3 | 19.8 | – | – | – | –
O=c1c2ccccc2nc(/C=C/c2ccc([N+](=O)[O-])o2)n1-c1ccc(O)cc1 [Number 6, 3-(4-Hydroxyphenyl)-2-[(E)-2-(5-nitro-2-furyl)vinyl]-4(3H)-quinazolinone] | 2.98 | 3.17 | 4.49 | – | – | – | –
c1ccc(CNc2cc(-c3ccccc3)nc(-c3ccccn3)n2)cc1 [Number 10, N-benzyl-6-phenyl-2-pyridin-2-ylpyrimidin-4-amine] | 6.03 | 3.24 | 7.73 | – | – | – | –
N#CC(C#N)=NNc1ccc(OC(F)(F)F)cc1 [Number 22] | 2.42 | 2.89 | 4.12 | – | – | – | –
COc1cc(NC(=O)c2ccc([N+](=O)[O-])o2)cc(C(F)(F)F)c1 [Number 9, N-[3-Methoxy-5-(trifluoromethyl)phenyl]-5-nitro-2-furamide] | 15.5 | 15 | – | 18.4 | – | – | –
Cn1c(=O)c(F)c(Nc2ccc(I)cc2F)c2c(=O)n(C[C@@H](O)CO)cnc21 [Number 25, Tak-733, reference compound] | – | – | – | – | strong effect sizes | – | –
N#CC(C#N)=NNc1cccc(Cl)c1 [Number 4] | 2.85 | 3.54 | 4.31 | – | – | – | –
COc1ccc(Cc2c(N)nc(-c3ccccn3)nc2N)cc1 [Number 19, 5-(4-Methoxybenzyl)-2-(2-pyridinyl)-4,6-pyrimidinediamine] | 24.9 | 20 | 36.5 | – | – | – | –
C=CCN1C(=O)CS/C1=N\NC(=S)NC [Number 1, 1-methyl-3-[(Z)-(4-oxo-3-prop-2-enyl-1,3-thiazolidin-2-ylidene)amino]thiourea] | 10 | 11.5 | > 30 | – | – | – | –
CC(C)c1cc(N2CCCCC2)nc(-c2ccccn2)n1 [Number 13, 4-Piperidin-1-yl-6-propan-2-yl-2-pyridin-2-ylpyrimidine] | 18.7 | 6.75 | 28.7 | – | – | – | –
CCOC(=O)CCNc1cc(N2CCc3ccccc3CC2)nc(-c2ccccn2)n1 [Number 17] | 6.08 | 3.41 | 7.69 | – | – | – | –
Cn1c(/C=C/c2ccc([N+](=O)[O-])o2)nc2ccccc2c1=O [Number 5, 3-Methyl-2-[(E)-2-(5-nitro-2-furyl)vinyl]-4(3H)-quinazolinone] | 2.64 | 2.39 | 4.01 | – | – | – | –
O=C(NOC[C@H](O)CO)c1ccc(F)c(F)c1Nc1ccc(I)cc1F [Number 24, Mirdametinib] | – | – | – | – | – | 21.8 | 80
COc1cc(F)c(F)c(Nc2ccc(I)cc2F)c1NS(=O)(=O)C1(C[C@H](O)CO)CC1 [Number 14, Refametinib] | > 30 | > 30 | – | > 30 | – | – | –
O=C(NOC[C@H](O)CO)c1ccc(F)c(F)c1Nc1ccc(I)cc1F [Number 24, Mirdametinib, reference compound] | – | – | – | – | strong effect sizes | – | –
CN(C)S(=O)(=O)c1cc(NC(=O)c2ccc([N+](=O)[O-])o2)ccc1Cl [Number 12, N-[4-Chloro-3-(dimethylsulfamoyl)phenyl]-5-nitro-2-furamide] | 8.51 | 7.09 | 11.2 | – | – | – | –
O=C(NOCC1CC1)c1ccc(F)c(F)c1Nc1ccc(I)cc1Cl [Number 23] | 7.96 | 6.21 | 10.3 | – | – | – | –
Cc1nc(Nc2ncc(C(=O)Nc3c(C)cccc3Cl)s2)cc(N2CCN(CCO)CC2)n1 [Number 20] | 1.42 | 2.32 | 3.74 | – | – | – | –
Cn1c(=O)c(F)c(Nc2ccc(I)cc2F)c2c(=O)n(C[C@@H](O)CO)cnc21 [Number 25] | 9.51 | 16.9 | 41.9 | – | – | – | –
O=C1C2=C(C(=O)c3ccccc31)[C@H]1Oc3ccccc3[C@H]1CO2 [Number 15, Pterocarpanquinone ((2S,10S)-3,12-dioxapentacyclo[11.8.0.02,10.04,9.015,20]henicosa-1(13),4,6,8,15,17,19-heptaene-14,21-dione)] | – | – | – | 4.45 | – | 2.8 | 3.54
Fc1ccccc1-c1cc(NCCc2c[nH]c3ccccc23)nc(-c2ccccn2)n1 [Number 11, 6-(2-Fluorophenyl)-N-[2-(1H-indol-3-yl)ethyl]-2-(2-pyridinyl)-4-pyrimidinamine] | 6.43 | 3.05 | 9.68 | – | – | – | –
O=C(Nc1ccccc1C(=O)NCc1ccccn1)c1ccc([N+](=O)[O-])o1 [Number 8, 5-Nitro-N-{2-[(2-pyridinylmethyl)carbamoyl]phenyl}-2-furamide] | 19.4 | 19.4 | 24.5 | – | – | – | –
CC(=O)N(C)c1ccc(Nc2nc(NC3CCC3)c3[nH]cnc3n2)cc1 [Number 18, N-(4-{[6-(Cyclobutylamino)-7H-purin-2-yl]amino}phenyl)-N-methylacetamide] | 2.53 | 3.07 | 5.93 | – | – | – | –
COc1cc2ncnc(Nc3cccc(Cl)c3C)c2cc1OC [Number 7, N-(3-Chloro-2-methylphenyl)-6,7-dimethoxy-4-quinazolinamine] | 12.1 | 17 | > 30 | – | – | – | –
Cc1c(Cl)cccc1Nc1ncnc2cc(Cl)ccc12 [Number 3, 7-Chloro-N-(3-chloro-2-methylphenyl)-4-quinazolinamine] | 14 | > 30 | > 30 | – | – | – | –

Source: patent publication EP4667628A1, “SYNTHETIC LETHALITY TO TREAT AUTOSOMAL DOMINANT POLYCYSTIC KIDNEY DISEASE (ADPKD)” (Albert-Ludwigs-Universität Freiburg Körperschaft des …, priority 2024, dated 2025)
